Laboratory results reported in patent US20070275091A1, “Compositions And Methods For Improved Mucus Function” (priority 2004, published 2007).
“Also recorded” adds a separate entry of the source.

Key:
[1] = tested on: tracheal mucociliary clearance; test: Tracheal mucus velocity in anesthetized dogs; type: in vivo; conditions: for TMV: 7 mL over 20 min, jet nebulizer; for thread formation capability (a measure of elasticity) of the tracheal mucus: after aerosol exposure, not in sham or saline
Procedure: The mucomodulator aerosols were delivered to the intubated, spontaneously breathing dogs by jet nebulizer aerosol (7 mL over 20 min). Three aerosol concentrations were delivered: Low=0.001M; Med 0.01M; High=0.1M.
The following was assessed: cardio-respiratory pattern, tracheal mucus clearance, airway patency, and mucus viscoelasticity changes.

[2] = Simulated cough machine, expectoration of mucus simulant
From the text: The simulated cough machine system comprises the following elements: A 10-L tank with compressed air, which serves as a pressure reservoir that generates airflow, simulating the lungs during a cough maneuver. The pressure generated prior to a normal adult cough is approximately 8 psi pressure. This pressure value was used to simulate the airflow pattern of a human cough for each trial.
The model “trachea” is a 28 cm long rigid acrylic tube with a circular 2.5 cm cross-section. It has an 8 cm removable portion to allow us to measure the weight of the sample of mucus simulant loaded before and immediately after each “cough” maneuver. A solenoid valve located between the pressure reservoir and the model trachea control the gas released from the tank.
An aliquot of sputum or mucus simulant is layered on the bottom of the model trachea and driven forward by the pressurized gas. […] Displacement of the MS sample loaded, expressed in millimeters, is measured from the initial placement to the farthest point with a visible bulk concentration of mucus. […]
Mucus simulants (MS) were exposed to airflow in a simulated cough machine (SCM). […] Mucociliary clearance of the MS was assessed on the frog palate (FIG. 5A), elasticity in the Filancemeter (FIG. 6A) and the aerosol pattern in a “bulls-eye” target (FIG. 6B). […]

[3] = Filancemeter spinnability of mucus simulant; type: physicochemical; conditions: model studies using vegetable polysaccharides
Procedure: (§1) Mucus simulants (MS) were exposed to airflow in a simulated cough machine (SCM). The MS ranged from non-viscous, non-elastic substances (water—control) to MS of varying degrees of viscosity and elasticity. Mucin crosslinking was increased by adding sodium tetraborate (mucomodulator B) to viscous solutions of locust bean gum (Sigma). Mucociliary clearance of the MS was assessed on the frog palate (FIG. 5A), elasticity in the Filancemeter (FIG. 6A) and the aerosol pattern in a “bulls-eye” target (FIG. 6B). The sample loaded was weighed before and after each cough maneuver to achieve a measure of expectoration (FIG. 5B).

[4] = tested on: frog palate epithelial model; test: Mucociliary clearance of borate-treated mucus simulant on frog palate; parameters: species or system Rana catesbiana; conditions: control native frog palate mucus 24 mm/min
Procedure: (§2) The displacement of a 1-5 μL of endogenous frog mucus sample is timed as the trailing edge moves across a predetermined segment. MTV is calculated by dividing the distance traveled by the time elapsed, based on at least five measurements of the time required for the mucus sample to travel the defined distance (3).
as §1

[5] = Aerosol pattern on bulls-eye target, simulated cough machine; conditions: increasing amounts added, 1.5 μL to 150 μL
Procedure: as §1

[6] = tested on: frog palate mucociliary clearance; test: Frog palate mucociliary transport, agent applied topically; parameters: species or system Rana catesbiana
Procedure: as §2
In FIG. 4A, the effect of a mucomodulating agent (CaCl2) on mucociliary transport time is shown compared to Frog Ringers (FR) solution. Both solutions (FR and CaCl2) were applied topically to the palate in a volume of 5 μL. Thirty seconds were allowed for dispersion of the agent on the palate, followed by the measurement of mucociliary transport time. A droplet of mucus from the palate was placed on palate toward the mouth opening. Ciliary action transported the droplet down the palate. The measurement process (timing the movement of the droplet down the palate over a set distance of 4 mm as observed through a stereomicroscope with a reticulated eyepiece) was repeated five times and averaged to give a mean transport time for each solution.
As described above, mucomodulator solutions were applied topically to the palate in a volume of 5 μl. After 30 seconds to allow dispersion of the agent on the palate, measurements of mucociliary transport time were taken. None of the agents tested on the frog palate had any significant effect on mucociliary clearance until the highest delivered concentrations. Variations at low concentrations were due to variations in baseline frog palate mucociliary activity.

[7] = tested on: mucus from the frog palate; conditions: 5 μL of 0.1 M solution applied topically
From the text: From a bullfrog, Rana catesbiana, the upper portion of the head is removed modifying the procedures described in previous works. This is done by pithing the frog after lowering the body temperature to abolish pain sensation, and then cutting with scissors through from the junction of the posterior pharynx and esophagus out to the skin of the back. The palate is checked for macroscopic lesions, such as ulcers, or evidence of inflammation. The palate is then placed inside the frog chamber, a wooden box with a glass top and fitted glass front and manipulated through glove openings, and viewed under a dissecting stereomicroscope provided with a reticulated eyepiece. Humidity inside the box is maintained at 100% using a Pari nebulizer; the box is maintained at room temperature (22° to 24° C.). Before carrying out any measurement, the palate is allowed to stabilize inside the box for 15 minutes.
Samples of mucus and tissue are placed in 2.5% glutaraldehyde solution immediately after collection and stored at 4° C. until processing. Briefly, the samples are post-fixed in 1% osmium tetroxide in Millonig's buffer at room temperature for one hour. They are then washed briefly in a series of ethanol (50-100%), ten minutes at each step, followed by two additional periods of absolute ethanol (10 minutes each). […]

HMW dextran [XL “D”]
TMV ([1]; High = 0.1M aerosol): 3.85 ± 2.2 mm/min
TMV ([1]; Low = 0.001M aerosol): 4.43 ± 3.83 mm/min
TMV ([1]; Med = 0.01M aerosol): 3.77 ± 1.65 mm/min
thread formation capability (a measure of elasticity) of the tracheal mucus [1]: increase

[Na+].[Na+].[O-]B1OB2OB([O-])OB(O1)O2 [XL “B”, sodium tetraborate]
amount of MS expelled from the SCM ([2]; 1.5 μL added): 47%
amount of MS expelled from the SCM ([2]; 150 μL added): 96%
elasticity relative to viscosity [3]: preferentially raises elasticity relative to viscosity
mucociliary transport rate of treated mucus simulants (means) [4]: 16-20 mm/min
TMV ([1]; High = 0.1M aerosol): 4.3 ± 1.53 mm/min
TMV ([1]; Low = 0.001M aerosol): 3.88 ± 1.66 mm/min
TMV ([1]; Med = 0.01M aerosol): 4.96 ± 1.99 mm/min
thread formation capability (a measure of elasticity) of the tracheal mucus [1]: increase
particles in the aerosolization pattern [5]: reduced to almost disappear

poly-L-arginine [Mucomodulator A]
mucociliary clearance rate ([6]; 5 μl topical, 10^-8 to 10^-1 M, increasing applied concentration): significant increase

[Ca+2].[Cl-].[Cl-] [CaCl2, calcium chloride]
mucociliary transport time compared to Frog Ringers ([6]; 5 μL topical, 30 s dispersion, 4 mm distance): no significant effect; also recorded: did not alter the mucus transit time
effect on mucus on the surface of the palate (SE micrograph) [7]: causes “clumping” of the mucus

polymyxin B [reference compound]
mucociliary clearance ([6]; 5 μl topical, highest concentration): sustained decrease
mucociliary clearance ([6]; 5 μl topical, intermediate concentration): increase
